Experimental data reported in patent US20050239656A1, “Pyridine compounds or salts thereof and herbicides containing the same” (priority 2002, published 2005).

Legend:
[1] = tested on: soybean; test: Test Example 2: soil surface treatment, upland pot test; assay type: in vivo, Glycine max Merr.
Excerpt: (§1) Upland field soil was put into a 1/170,000 ha pot, and seed of various plants (barnyardgrass, crabgrass, green foxtail, redroot pigweed, prickly sida, velvetleaf, rice, wheat, corn, soybean) were sown. On the 1st day after the sowing, a wettable powder or emulsifiable concentrate having the compound of the present invention formulated in accordance with a usual formulation method, was weighed so that the active ingredient would be a predetermined amount, and diluted with water in an amount of 1,500 L/ha. The herbicide thus adjusted was applied by a small size sprayer for soil surface treatment. On the 20th to 28th days after the application of the herbicide, the growth of the respective plants was visually observed, and the herbicidal effects were evaluated by the growth controlling degrees (%) ranging from 0 (equivalent to the non-treated plot) to 100 (complete kill), whereby the results shown in Table 4, were obtained.

[2] = tested on: green foxtail; test: as above; assay type: in vivo, Setaria viridis L.
Excerpt: as §1

[3] = tested on: corn; test: as above; assay type: in vivo, Zea mays L.
Excerpt: as §1

[4] = tested on: velvetleaf; test: as above; assay type: in vivo, Abutilon theophrasti MEDIC.
Excerpt: as §1

[5] = tested on: crabgrass; test: as above; assay type: in vivo, Digitaria sanguinalis L.
Excerpt: as §1

[6] = tested on: barnyardgrass; test: as above; assay type: in vivo, Echinochloa crus-galli L.
Excerpt: as §1

[7] = tested on: rice; test: as above; assay type: in vivo, Oryza sativa L.
Excerpt: as §1

[8] = tested on: prickly sida; test: as above; assay type: in vivo, Sida spinosa L.
Excerpt: as §1

[9] = tested on: redroot pigweed; test: as above; assay type: in vivo, Amaranthus retroflexus L.
Excerpt: as §1

[10] = tested on: barnyardgrass; test: Test Example 3: paddy pot test, application under submerged conditions; assay type: in vivo, Echinochloa crus-galli L.; conditions: submerged application at 0.5 leaf stage, visually observed 14 days after application, 0 = non-treated, 100 = complete kill
Excerpt: (§2) Paddy field soil was put into a 1/1,000,000 ha pot, and seed of barnyardgrass and japanese bulrush were sown and slightly covered with soil. Then, the pot was left to stand still in a greenhouse in a state where the depth of flooding water was from 0.5 to 1 cm, and one day or two days later, tubers of japanese ribbon wapato were planted. Thereafter, the depth of flooding water was maintained at a level of from 3 to 4 cm, and when barnyardgrass and japanese bulrush reached a 0.5 leaf stage and japanese ribbon wapato reached a primary leaf stage, an aqueous diluted solution of a wettable powder or emulsifiable concentrate having the compound of the present invention formulated in accordance with a usual formulation method, was uniformly applied under submerged conditions by a pipette so that the dose of the active ingredient would be at a predetermined level. On the 14 days after the application of the herbicide, the growth of barnyard grass, japanese burlrush and japanese ribbon wapato was visually observed and on the 21st day after the application of the herbicide, the growth of rice was visually observed, and the herbicidal effects were evaluated by the growth-controlling degrees (%) ranging from 0 (equivalent to the non-treated plot) to 100 (complete kill), whereby the results shown in Table 5 were obtained.

[11] = tested on: rice (var. Nihonbare); test: Test Example 3: paddy pot test, transplanted rice; assay type: in vivo, Oryza sativa L.; conditions: applied 4th day after transplantation, visually observed 21st day after application, 0 = non-treated, 100 = complete kill
Excerpt: as §2, with “On the other hand, paddy field soil was put into a 1/1,000,000 ha pot and puddled and leveled, and the depth of flooding water was from 3 to 4 cm. Next day, rice (var. Nihonbare) of 2 leaf stage was transplanted in a depth of 3 cm. On the 4th day after the transplantation, the compound of the present invention was applied in the same manner as described above. On the 14 days” for “On the 14 days”

[12] = tested on: japanese bulrush; test: Test Example 3: paddy pot test, application under submerged conditions; assay type: in vivo, Scirpus juncoides; conditions: submerged application at 0.5 leaf stage, visually observed 14 days after application, 0 = non-treated, 100 = complete kill
Excerpt: as §2

[13] = tested on: japanese ribbon wapato; test: as above; assay type: in vivo, Sagittaria pygniaea; conditions: submerged application at primary leaf stage, visually observed 14 days after application, 0 = non-treated, 100 = complete kill
Excerpt: as §2

[14] = active ingredient 500 g/ha, observed 20th to 28th day
[15] = active ingredient 250 g/ha, observed 20th to 28th day
[16] = active ingredient 500 g/ha, observed day 21, 0 = non-treated, 100 = complete kill

Compound	Growth controlling degree (%) Soyabean [1, 14] [%]	Growth controlling degree (%) Green foxtail [2, 14] [%]	Growth controlling degree (%) Corn [3, 14] [%]	Growth controlling degree (%) Velvetleaf [4, 14] [%]	Growth controlling degree (%) Crabgrass [5, 14] [%]	Growth controlling degree (%) Barnyardgrass [6, 14] [%]	Growth controlling degree (%) Rice [7, 14] [%]	Growth controlling degree (%) Prickly sida [8, 14] [%]	Growth controlling degree (%) Redroot pigweed [9, 14] [%]	Growth controlling degree (%) Barnyardgrass ([10]; active ingredient 250 g/ha) [%]	Growth controlling degree (%) Rice ([11]; active ingredient 250 g/ha) [%]	Growth controlling degree (%) Japanese bulrush ([12]; active ingredient 250 g/ha) [%]	Growth controlling degree (%) Rice ([11]; active ingredient 500 g/ha) [%]	Growth controlling degree (%) Japanese bulrush ([12]; active ingredient 500 g/ha) [%]	also measured
CNC(=S)N(C)C(c1cnccc1C(F)(F)F)C(C)C (racemic) [Compound I-112]	10	50	10	10	70	20	40	40	70						
CC(C)C(c1cnccc1C(F)(F)F)N(C)C(=O)SCc1ccccc1 (racemic) [I-113]	10	95	20	60	70	60	30	60	70	95	0	30			
CC(C)C(c1cnccc1C(F)(F)F)N(C)C(=O)Cc1c(F)ccc(F)c1F (stereo not drawn) [Compound I-17]	20	100	20	80	98	100	30	90	50				35	90	Growth controlling degree (%) Japanese ribbon wapato ([13]; active ingredient 500 g/ha): 90%
CC(C)C(c1cnccc1C(F)(F)F)N(C)C(=O)Cc1ccccc1F (stereo not drawn) [Compound I-25]													30	98	Growth controlling degree (%) Soyabean [1, 15]: 10%; Growth controlling degree (%) Green foxtail [2, 15]: 100%; Growth controlling degree (%) Japanese ribbon wapato ([13]; active ingredient 500 g/ha): 100%; Growth controlling degree (%) Corn [3, 15]: 20%; Growth controlling degree (%) Velvetleaf [4, 15]: 95%; Growth controlling degree (%) Crabgrass [5, 15]: 100%; Growth controlling degree (%) Barnyardgrass [6, 15]: 98%; Growth controlling degree (%) Rice [7, 15]: 20%; Growth controlling degree (%) Prickly sida [8, 15]: 100%; Growth controlling degree (%) Redroot pigweed [9, 15]: 100%
CC(C)C(c1cnccc1C(F)(F)F)N(C)C(=O)Cc1ccc(C(F)(F)F)cc1F (stereo not drawn) [Compound I-105]	10	100	30	10	98	70	10	80	60	100	20	80			
CC(C)C(c1cnccc1C(F)(F)F)N(C)C(=O)C=Cc1cccnc1 (stereo not drawn) [Compound I-184]	20	40	0	50	98	30	20	80	30				10	90	Growth controlling degree (%) Barnyardgrass ([10]; active ingredient 500 g/ha): 70%
CC(C)C(c1cnccc1C(F)(F)F)N(C)C(=O)Nc1ccccc1 (stereo not drawn) [Compound I-230]	0	70	40	0	98	50	10	30	60						
CCN(C(=O)Cc1ccc(C)cc1)C(c1cnccc1C(F)(F)F)C(C)C (stereo not drawn) [I-101]	0	70	10	30		70	0	30	80	100	10	98			Growth controlling degree (%) Japanese ribbon wapato ([13]; active ingredient 250 g/ha): 40%
CC(C)C(c1cnccc1C(F)(F)F)N(C)C(=O)CCl (stereo not drawn) [I-168]	20	98	10	0	98	100	98	70	100						
Cc1ccc(C=CC(=O)N(C)C(c2cnccc2C(F)(F)F)C(C)C)cc1 (stereo not drawn) [I-181]	0	95	10	30	98	30	40		40				10	98	Growth controlling degree (%) Barnyardgrass ([10]; active ingredient 500 g/ha): 95%; Growth controlling degree (%) Japanese ribbon wapato ([13]; active ingredient 500 g/ha): 60%
CC(C)C(c1cnccc1C(F)(F)F)N(C)C(=O)COc1cccc(C(F)(F)F)c1 (stereo not drawn) [I-254]										100	0	98			Growth controlling degree (%) Soyabean [1, 16]: 10%; Growth controlling degree (%) Green foxtail [2, 16]: 100%; Growth controlling degree (%) Corn [3, 16]: 10%; Growth controlling degree (%) Velvetleaf [4, 16]: 70%; Growth controlling degree (%) Crabgrass [5, 16]: 98%; Growth controlling degree (%) Barnyardgrass [6, 16]: 90%; Growth controlling degree (%) Rice [7, 16]: 10%; Growth controlling degree (%) Prickly sida [8, 16]: 90%; Growth controlling degree (%) Redroot pigweed [9, 16]: 50%
